Target: T1, GAL4-ER (LBD)-VP16 fusion protein (Homo sapiens, UniProt P03372, G400V)
T1 construct: was used to replace the ER of 281-595; expressed in transfected cells; host or cells: 293T cells (A1, A2, A3, A5)
T1 sequence (P03372 281-595 G400V): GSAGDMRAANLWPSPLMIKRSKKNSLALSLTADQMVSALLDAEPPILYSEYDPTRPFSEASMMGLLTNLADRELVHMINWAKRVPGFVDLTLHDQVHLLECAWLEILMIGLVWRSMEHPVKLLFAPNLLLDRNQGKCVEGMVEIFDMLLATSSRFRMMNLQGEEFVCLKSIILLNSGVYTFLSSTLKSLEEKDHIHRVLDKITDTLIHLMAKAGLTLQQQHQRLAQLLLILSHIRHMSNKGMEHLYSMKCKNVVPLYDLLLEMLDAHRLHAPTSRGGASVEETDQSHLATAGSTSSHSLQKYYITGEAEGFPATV
Test: ER-ligand induced transactivation system (GAL4-ER(LBD)-VP16 activator + GAL4-E4-firefly luciferase reporter) in transiently co-transfected 293T cells
Type: cell-based
Text: Cell Transfection and Luciferase Assay. […] Volumes of Lipofectamine were as recommended by the manufacturer.

| SMILES | fold luciferase signal in comparison to carrier control (1 μM ligand) | transactivation signal relative to carrier control (in words) (1 μM) |
| --- | --- | --- |
| C[C@]12CC[C@@H]3c4ccc(O)cc4C[C@@H](CCCCCCCCC[S+]([O-])CCCC(F)(F)C(F)(F)F)[C@H]3[C@@H]1CC[C@@H]2O (some centres unmarked) [ICI] | 300±80 fold |  |
| N.N.[Cl][Pt][Cl] [non-ligand anticancer drug, cisplatinum] |  | not significantly different from the cells exposed to carrier control |
